Laboratory results taken from patent US20240181022A1, “AMURINS LYSINS, AND LYSIN-ANTIMICROBIAL PEPTIDE (AMP) CONSTRUCTS ACTIVE AGAINST GRAM-NEGATIVE BACTERIA” (priority 2021, published 2024).
In brackets after ≈: the same amount, converted by molar mass. Read-outs that look alike come from different tables or passages of the source. Where a SMILES comes first, the peptide text is derived from it. [ ]: non-standard residue; d: D form.

Assays:
[1] = tested on: M. abscessus; test: MIC against MDR M. abscessus isolates; type: cell-based, Mycobacterium abscessus; conditions: 7 days; for MIC: AST media (CAAT)
[2] = tested on: B. cenocepacia; type: cell-based, Burkholderia cenocepacia
Procedure: (§1) The MBEC (after 2-hour treatments) was determined as described in Jones and Wozniak, PsI Produced by Mucoid Pseudomonas aeruginosa Contributes to the Establishment of Biofilms and Immune Evasion, Am. Soc. Microbiol. 2017, 8(3):e00864-17. Meropenem and tobramycin were included as controls and were both poorly active, with MBEC90 values of >256 μg/mL (data not shown).

[3] = tested on: P. aeruginosa; test: Serial passage resistance development study, P. aeruginosa; type: cell-based, Pseudomonas aeruginosa; conditions: P. aeruginosa strain CFS 1292, Day 28
[4] = tested on: S. maltophilia
[5] = tested on: P. aeruginosa
[6] = tested on: P. aeruginosa; test: Time-kill assay in cystic fibrosis patient sputum, P. aeruginosa; type: cell-based, Pseudomonas aeruginosa
Description: (§2) Sputum from 5 cystic fibrosis patients was pooled. The resulting mixture was not filtered, as it was very dense and not amenable to sterilization by filtration. Sputum is known to be a complex mixture of DNA, carbohydrates, and lipids ([…], 2016). As used herein, the term “sputum” refers to the mucus present in the respiratory tract of an animal, such as a human. Sputum may increase in thickness due to the irritation or infection, including bacterial infection, and in some instances, may be expelled by the animal while coughing. In certain instances, cystic fibrosis may be characterized by the presence of a thick, sticky mucus or sputum present in the lungs of cystic fibrosis patients. The activity of GN370, AM1, AM2, AM3, and meropenem was determined in the sputum using a time-kill assay format as disclosed in Zhang et al., Antimicrobial peptide therapeutics for cystic fibrosis, Antimicrobial Agents Chemother. 2005; 49(7):2921-2927. […] Untreated controls were included in addition to pretreatment plating (t=0) for a baseline CFU determination. Activity was also determined in the absence of sputum for comparison to activity observed in the presence of sputum.

[7] = tested on: M. tuberculosis; type: cell-based, Mycobacterium tuberculosis
[8] = tested on: A. dolens; type: cell-based, Achromobacter dolens
Procedure: as §1

[9] = tested on: M. avium; test: MIC against M. avium; type: cell-based, Mycobacterium avium; conditions: M. avium (ATCC 700898); CAAT media
[10] = tested on: A. xylosoxidans; test: Time-kill assay in cystic fibrosis patient sputum, A. xylosoxidans; type: cell-based, Achromobacter xylosoxidans
Description: as §2

[11] = tested on: M. scrofulaceum; test: MIC against M. scrofulaceum; type: cell-based, Mycobacterium scrofulaceum; conditions: M. scrofulaceum (ATCC 19981); CAAT media
[12] = tested on: A. xylosoxidans; type: cell-based, Achromobacter xylosoxidans
Procedure: (§3) MIC values were determined using a modification of the standard broth microdilution reference method defined by the Clinical and Laboratory Standards Institute (CLSI), CLSL. 2015. Methods for Dilution Antimicrobial Susceptibility Tests for Bacteria That Grow Aerobically; Approved Standard-10th Edition. Clinical and Laboratory Standards Institute, Wayne, PA. The modification was based on the replacement of Mueller Hinton Broth with either CAA media (with and without NaCl) or CAA supplemented with 2.5% human serum. MIC is the minimum concentration of peptide sufficient to suppress at least 80% of the bacterial growth compared to control.
(§4) The MICs for were determined as described below using the broth microdilution method for meropenem, GN370, AM1, AM2, and AM3. The results are shown below in Tables 8-12.
The activity of GN370 and AM1 was evaluated against various bacterial isolates, including mucoid and α-hemolytic isolates of P. aeruginosa, MDR isolates, and carbapenem-resistant isolates.

[13] = tested on: B. cenocepacia; test: MIC by broth microdilution against B. cenocepacia; type: cell-based, Burkholderia cenocepacia; conditions: B. cenocepacia isolates
Procedure: as §3
(§5) Based on these nine most prevalent strains, direct lytic agents, including GN370, AM1, AM2, and AM3, were evaluated against various isolates from each of the 9 strains. MICs and MBECs (Example 3) were determined, and a sputum inhibition test was conducted, as described below in Example 5.
as §4

[14] = tested on: A. ruhlandii; test: MIC by broth microdilution against A. ruhlandii; type: cell-based, Achromobacter ruhlandii; conditions: A. ruhlandii isolates
Procedure: as §3, §5, §4

[15] = tested on: A. dolens; test: MIC by broth microdilution against A. dolens; type: cell-based, Achromobacter dolens; conditions: A. dolens isolates
Procedure: as §3, §5, §4

## CC[C@H](C)[C@H](NC(=O)[C@@H](CCCNC(=N)N)NC(=O)[C@H](Cc1ccccc1)NC(=O)CNC(=O)CNC(=O)[C@@H](CCCNC(=N)N)NC(=O)[C@H](CCSC)NC(=O)[C@@H]1CCCN1C(=O)[C@@H](CCCNC(=N)N)NC(=O)[C@H](C)NC(=O)[C@@H](CCCNC(=N)N)NC(=O)[C@H](CC(C)C)NC(=O)[C@H](CC(N)=O)NC(=O)[C@@H](CCCNC(=N)N)NC(=O)[C@@H](CCCCN)NC(=O)[C@@H](CCCCN)NC(=O)[C@@H](NC(=O)[C@H](CC(N)=O)NC(=O)[C@@H](NC(=O)[C@H](C)NC(=O)CNC(=O)[C@@H](CCCNC(=N)N)NC(=O)[C@@H](NC(=O)[C@H](Cc1ccccc1)NC(=O)[C@@H](NC(=O)[C@@H](CCCCN)NC(=O)[C@@H](CCCNC(=N)N)NC(=O)[C@H](CO)NC(=O)[C@@H](CCCCN)NC(=O)[C@@H](CCCCN)NC(=O)[C@@H](CCCCN)NC(=O)[C@H](CO)NC(=O)[C@H](CC(C)C)NC(=O)[C@@H](CCCCN)NC(=O)[C@@H](CCCNC(=N)N)NC(=O)[C@@H](CCCNC(=N)N)NC(=O)[C@@H](CCCCN)NC(=O)[C@@H](N)CCSC)[C@@H](C)CC)[C@@H](C)O)C(C)C)C(C)C)C(=O)O [AM3] (H-M[dK][dR][dR][dK]LS[dK][dK][dK]S[dR][dK]IFT[dR]GAVNV[dK][dK][dR]NL[dR]A[dR]PM[dR]GGF[dR]I-OH; N-terminus and C-terminus assumed)
[1]; 5 clinical MDR strains and 1 ATCC strain, CAAT
  activity (MIC) against M. abscessus: highly active
[1]; M. abscessus strain BK51402
  MIC: 1 µg/mL (≈ 0.219 µM)
[1]; M. abscessus strain BK51403 (ATCC 19977)
  MIC: 4 µg/mL (≈ 0.875 µM)
[1]; M. abscessus strain BK51408
  MIC: 4 µg/mL (≈ 0.875 µM)
[1]; M. abscessus strain BK55096
  MIC: 2 µg/mL (≈ 0.438 µM)
[1]; M. abscessus strain BK55691
  MIC: 1 µg/mL (≈ 0.219 µM)
[1]; M. abscessus strain BK58156
  MIC: 1 µg/mL (≈ 0.219 µM)
[2]
  MBEC50: 16 µg/mL
  MBEC90: 32 µg/mL
  MBEC Range: 1 to 32 µg/mL
[3]
  change in MIC over serial passage: no significant changes
[4]; S. maltophilia isolates
  MIC50: 0.5 µg/mL (≈ 0.109 µM)
  MIC90: 1 µg/mL (≈ 0.219 µM)
[4]; S. maltophilia isolates, in µg/mL
  MIC Range: 0.016-2
[4]; S. maltophilia test organism of the sputum time-kill assay
  MIC: AM3 (MIC = 0.25)
[4]; all tested isolates, Tables 8-12
  activity (MIC) against S. maltophilia isolates: highly active
[5]
  MBEC50: 0.125 µg/mL
  MBEC90: 1 µg/mL
  MBEC Range: 0.016 to 1 µg/mL
[5]; 2-hour treatments
  antibiofilm activity (MBEC) against P. aeruginosa: primarily active
[6]; 10% CF sputum vs no sputum
  effect of sputum on antibacterial activity: not inhibited
[6]; absence of sputum, 1 hr
  Log10 CFU/mL of sputum: 2.3 Log10 CFU/mL of sputum
[6]; absence of sputum, 3 hr
  Log10 CFU/mL of sputum: 2.3 Log10 CFU/mL of sputum
[6]; absence of sputum, 24 hr
  Log10 CFU/mL of sputum: 2.3 Log10 CFU/mL of sputum
[6]; presence of 10% sputum, 1 hr
  Log10 CFU/mL of sputum: 2.3 Log10 CFU/mL of sputum
[6]; presence of 10% sputum, 3 hr
  Log10 CFU/mL of sputum: 2.3 Log10 CFU/mL of sputum
[6]; presence of 10% sputum, 24 hr
  Log10 CFU/mL of sputum: 2.3 Log10 CFU/mL of sputum
[6]; time-kill
  killing by 1 hour, maintained by 24 hours: complete killing
[7]; M. tuberculosis (ATCC 35817), (ADC, T) media
  MIC: 8 µg/mL (≈ 1.75 µM)
[7]; M. tuberculosis strain TN8109_LB (MDR), 7H9 broth, 20 days
  MIC: 16 µg/mL (≈ 3.5 µM)
[7]; M. tuberculosis strain TN8562_M33 (susc), 7H9 broth, 20 days
  MIC: 16 µg/mL (≈ 3.5 µM)
[7]; M. tuberculosis strain TN10525_LL (MDR), 7H9 broth, 20 days
  MIC: 64 µg/mL (≈ 14 µM)
[7]; M. tuberculosis strain TN10571_KY (MDR), 7H9 broth, 20 days
  MIC: 16 µg/mL (≈ 3.5 µM)
[7]; M. tuberculosis strain TN12657_KQ15 (IS), 7H9 broth, 20 days
  MIC: 16 µg/mL (≈ 3.5 µM)
[7]; M. tuberculosis strain TN13923_HD17 (susc), 7H9 broth, 20 days
  MIC: 32 µg/mL (≈ 7 µM)
[7]; M. tuberculosis strain TN18349_W738 (susc), 7H9 broth, 20 days
  MIC: 4 µg/mL (≈ 0.875 µM)
[7]; M. tuberculosis strain TN34503_001 (susc), 7H9 broth, 20 days
  MIC: 16 µg/mL (≈ 3.5 µM)
[8]
  MBEC50: 2 µg/mL
  MBEC90: 16 µg/mL
  MBEC Range: 1 to 32 µg/mL
[9]
  MIC: 1 Tg/mL
[10]; 10% CF sputum vs no sputum
  effect of sputum on antibacterial activity: none of GN370, AM1, AM2, and AM3 was inhibited
[10]; absence of sputum, 1 hr
  Log10 CFU/mL of sputum: 4.3 Log10 CFU/mL of sputum
[10]; absence of sputum, 3 hr
  Log10 CFU/mL of sputum: 3.3 Log10 CFU/mL of sputum
[10]; absence of sputum, 24 hr
  Log10 CFU/mL of sputum: 2.3 Log10 CFU/mL of sputum
[10]; presence of 10% sputum, 1 hr
  Log10 CFU/mL of sputum: 2.3 Log10 CFU/mL of sputum
[10]; presence of 10% sputum, 3 hr
  Log10 CFU/mL of sputum: 2.3 Log10 CFU/mL of sputum
[10]; presence of 10% sputum, 24 hr
  Log10 CFU/mL of sputum: 2.3 Log10 CFU/mL of sputum
[10]; time-kill
  killing by 1 hour, maintained at 24 hours: complete killing
[11]
  MIC: 2 µg/mL (≈ 0.438 µM)
[12]; A. xylosoxidans isolates
  MIC50: 2 µg/mL (≈ 0.438 µM)
  MIC90: 16 µg/mL (≈ 3.5 µM)
[12]; A. xylosoxidans test organism of the sputum time-kill assay
  MIC: AM3 (MIC = 0.5)
[13]
  MIC50: > 128 µg/mL
  MIC90: > 128 µg/mL
[14]
  MIC50: 1 µg/mL (≈ 0.219 µM)
  MIC90: > 128 µg/mL
[15]
  MIC50: 2 µg/mL (≈ 0.438 µM)
  MIC90: 8 µg/mL (≈ 1.75 µM)
[15]; in µg/mL
  MIC Range: 0.016-16
